Patent US10683265B1, “Cannabidiol-3-sulfonic acid, preparation method and application thereof, and cannabidiol derivative” (Yantai Hemp Biotechnology Co., Ltd., priority 2019, dated 2020)
In brackets after ≈: the same amount, converted by molar mass. Where two headings read alike, the source gives them in different places.

Assays:
[1] = high-purity CBD, cited from earlier work
[2] = Solubility determining in water by HPLC (saturated solutions, external standard method); assay type: physicochemical; settings: for solubility: thermodynamic from solid
Description: 1. Solubility Determining:
1) Instruments and reagents: Thermo Fisher UltiMate 3000 high performance liquid chromatography (Thermo, USA); chromatographic column (Phenomenex Gemini C18, 5μ, 250×4.6 mm); electronic balance (METTLER TOLEDO instruments (Shanghai) Co., Ltd.); cannabidiol (commercially available), cannabidiol-3-sulfonic acid (prepared in Embodiment 1) and sodium cannabidiol-3-sulfonate (prepared in Embodiment 3). chromatography acetonitrile (Merck, Germany); water was Milli-Q ultrapure water, the remaining reagents were analytically pure.
Three clean 10 mL penicillin bottles were taken, 6 mL of ultrapure water was added accurately in each of the penicillin bottles, and the weight was weighed accurately. Cannabidiol, cannabidiol-3-sulfonic acid and sodium cannabidiol-3-sulfonate were separately added at room temperature until ultrasonic treatment was performed for 10 min and the samples still could not be completely dissolved, to obtain saturated solutions of three compounds respectively; the solutions stood overnight at room temperature, and supernatants were taken as solutions of samples for test (supernatants of the cannabidiol-3-sulfonic acid and the sodium cannabidiol-3-sulfonate were diluted by appropriate times depending on the detection situation).
An appropriate amount of cannabidiol, cannabidiol-3-sulfonic acid and sodium cannabidiol-3-sulfonate were taken and were prepared into solutions with a concentration of 0.2 mg·mL^−1 as reference substance solutions by using 10% acetonitrile-0.5% acetic acid solution.
The samples were determined by high performance liquid chromatography (Appendix V D of Part II of Chinese Pharmacopoeia).
Chromatographic conditions and system suitability Octadecylsilane bonded silica was used as a filler; 10% acetonitrile—0.5% acetic acid→75% acetonitrile—0.5% acetic acid were used as mobile phases; the wavelength was detected to be 225 nm; and the theoretical plate numbers were not less than 4,000 on a basis of cannabidiol, cannabidiol-3-sulfonic acid and sodium cannabidiol-3-sulfonate.
A measurement method includes: precisely measuring and injecting 20 μL of solution of sample for test into a liquid chromatograph, and recording a chromatogram; and taking a reference substance solution and measuring the reference substance solution according to the same method. The concentrations of the three compounds in the solution of sample for test were calculated by an external standard method according to a peak area.

[3] = in water, room temperature, saturated solution stood overnight, supernatant measured by HPLC, read-out: Solubility

## C=C(C)[C@@H]1CCC(C)=C[C@H]1c1c(O)cc(CCCCC)cc1O [Cannabidiol, 2-[(1R,6R)-3-methyl-6-(1-methylvinyl)-2-cyclohexen-1-yl]-5-pentyl-1,3-benzenediol]
[1]; ethanol, methanol, ether, benzene, chloroform, petroleum ether and other organic solvents
  Solubility in organic solvents (in words): soluble
[1]; water or 10% sodium hydroxide solution
  Solubility in water or 10% sodium hydroxide solution (in words): almost insoluble
[2]; in water at room temperature
  Solubility in water (in words): slightly soluble
[2]; [3]
  solubility: 0.41 mg/mL (≈ 1.3 mM)

## C=C(C)[C@@H]1CCC(C)=C[C@H]1c1c(O)cc(CCCCC)c(S(=O)(=O)[O-])c1O.[Na+] [Sodium cannabidiol-3-sulfonate, sodium cannabidiol-3-sulfonate]
[2]; [3]
  solubility: 486 mg/mL

## C=C(C)[C@@H]1CCC(C)=C[C@H]1c1c(O)cc(CCCCC)c(S(=O)(=O)O)c1O [Cannabidiol-3-sulfonic acid, (1′R,2′R)-2,6-dihydroxy-5′-methyl-4-pentyl-2″-(propyl-1-en-2-yl)-1″,2′,3′,4′-tetrahydro-[1,1′-biphenyl]-3-sulfonic acid]
[2]; water
  solubility: 56.2 mg/mL (≈ 142 mM)
